In patent publication EP1352977A2, “Novel Desulfitobacterium strain for the degradation of chloroalkenes” (UNIVERSITEIT GENT, priority 2002, dated 2003):
Entries after “also recorded” stand apart in the source; their conditions may differ.

Columns and labels:
Format in all cases: cell-based, Desulfitobacterium dichloroeliminans strain DCA1
[1] = tested on: Desulfitobacterium strain DCA1; experiment: Substrate range determination: growth on and dechlorination product from chlorinated substrates
[2] = tested on: Desulfitobacterium strain DCA1; experiment: Inhibition of 1,2-DCA dechlorination / toxicity to strain DCA1
[3] = tested on: Desulfitobacterium strain DCA1; experiment: Growth of strain DCA1 on other electron acceptors; conditions: for growth in the presence of electron acceptor: 3mM, electron donors lactate and H2

## ClCC(Cl)Cl [1,1,2-TCA, 1,1,2-trichloroethane]
[1]
  growth of strain DCA1: sustained growth; also recorded: supported growth

## ClCC(Cl)CCl [1,2,3-trichloropropane]
[1]
  dechlorination reaction: no dechlorination reaction was observed

## CCC(Cl)CCl (stereo not drawn) [1,2-DCB, 1,2-dichlorobutane]
[1]
  growth of strain DCA1: sustained growth

## CC(Cl)CCl (stereo not drawn) [1,2-dichloropropane]
[1]
  growth of strain DCA1: sustained growth

## OCC(Cl)CCl (stereo not drawn) [2,3-DC-propanol]
[1]
  dechlorination reaction: no dechlorination reaction was observed

## ClC(Cl)Cl [Chloroform, reference compound]
[2]; Desulfitobacterium dichloroeliminans, DCA1, read-out: inhibition of the dechlorination of 1,2-DCA
  inhibition at 50 µM: < 50%

## CC(Cl)C(C)Cl [D-2,3-DCB, D-2,3-dichlorobutane]
[1]
  growth of strain DCA1: sustained growth

## O=C(O)/C=C/C(=O)O [Fumarate]
[3]
  conversion as electron acceptors: not converted
[2]
  toxicity to strain DCA1: not toxic

## CC(Cl)C(C)Cl [L-2,3-DCB, L-2,3-dichlorobutane]
[1]
  growth of strain DCA1: sustained growth

## O=NO [NO2^-]
[3]
  conversion as electron acceptors: not converted
[2]; 2.5 mM
  inhibition of the dechlorination: fully inhibited

## O=[N+]([O-])O [NO3^-]
[3]
  growth in the presence of electron acceptor: grew

## O=O [O2]
[3]
  conversion as electron acceptors: not converted

## CCCI [Propyliodide, reference compound]
[2]; 50 µM, in the dark, light reversible
  inhibition of the dechlorination: fully inhibited

## O=S(O)(O)=S [S2O3^2-]
[3]
  growth in the presence of electron acceptor: grew

## O=S(O)O [SO3^2-]
[3]
  growth in the presence of electron acceptor: grew

## O=S(=O)(O)O [SO4^2-]
[3]
  conversion as electron acceptors: not converted

## Cl[C@H]1[C@H](Cl)[C@@H](Cl)[C@@H](Cl)[C@H](Cl)[C@H]1Cl [lindane]
[1]
  dechlorination reaction: no dechlorination reaction was observed

## C[C@H](Cl)[C@@H](C)Cl [meso-2,3-DCB, meso-2,3-dichlorobutane]
[1]
  growth of strain DCA1: sustained growth

## O=C(O)[C@@H](Br)[C@@H](Br)C(=O)O [meso-2,3-dibromosuccinate]
[1]
  dechlorination reaction: no dechlorination reaction was observed
